Laboratory results reported in patent US11878972B2, “Treatment of neurological disorders” (TORQUR AG, priority 2016, dated 2024).
“Also recorded” adds a separate entry of the source.

Tests used:
[1] = tested on: female NMRI mice, nonepileptic (sham-SE) and epileptic (pilo-SE); test: Maximal electroshock seizure threshold test (MEST); assay type: in vivo, mouse
Method: A total of 166 adult female NMRI mice were used obtained from Charles River (Sulzfeld, Germany) at a weight range of 21-25 g (mice). Animals were kept under the following conditions: Housing: Animals were housed in groups of max. 8 mice under controlled conditions (temperature: 22±1° C.; humidity: 50% 60%/), under a 12-h light-dark cycle (lights on at 6:00 a.m.). Feeding: Standard laboratory chow (Altromin 1324 standard diet, Altromin Spezialfutter GmbH, Lage, Germany) was provided ad libitum. Drinking water: Tap water was provided ad libitum.
The MEST determines a population seizure threshold in groups of ˜20 animals and not the threshold for an individual animal. In the present study, the MEST was determined by a staircase procedure as previously described. A stimulator (BMT Medizintechnik, Berlin, Germany) that delivered a constant current (adjustable from 1-200 mA regardless of the impedance of the animal) with sinusoidal pulses (50/sec) for 0.2 sec was used.
Current administration was performed via bilateral transcorneal stimulation (using copper electrodes). Before transcorneal stimulation, a drop of tetracaine solution (2%) was administered to the eyes of the mouse for local anesthesia. Two minutes later, the mouse was restrained by hand to press the copper electrodes on both corneas while the stimulus was applied by stepping on a foot pedal switch connected with the stimulator. Electrodes were covered with soft leather and soaked with saline before each current application. […] The first stimulation was started with a current near to the control threshold.
3 (HCl): 40/100 mg in 10 ml (Suspension; 5% PEG 400 and 2% Tween 80, HPBCD (10%6)) • Cpd. 8 (HCl): 12.5/25 mg in 10 ml (5% PEG 400 and 2% Tween 80, HPBCD (10%))
Statistical analysis were calculated using Student's t-test. All tests were used two-sided; a P<0.05 was considered significant.
We performed no special tests for the determination of adverse effects. Mice were observed about 30 min after injection in their home cages for obvious sedation or reduction of wellbeing. Five minutes before electrical stimulation mice were again observed in their home cages and two minutes before stimulation during handling procedure for treatment with local anaesthesia. Every obvious variation from normal behavior was noted. Only phenobarbital induced noticeable sedation which lasted for more than 60 min. All other test drugs (including vehicle solutions) were tolerated without any obvious adverse effects.

[2] = tested on: STHdh^Q7/Q7 and STHdh^Q111/Q111 cells; test: PrestoBlue assay (cell viability/metabolic activity); assay type: cell-based, mouse; settings: for metabolic activity (PrestoBlue) at 72 hours: 1230 nM, STHdh^Q111/Q111; for mitochondrial activity: at lower concentration
Method: Cell viability/metabolic activity was detected using the PrestoBlue viability reagent (Invitrogen, USA) according to the manufacturer's instructions. […] 3 (130 nM, 1230 nM), Cpd. […] Non-toxic concentrations determined were transferred to primary neurons used later on in this study. […] At lower concentration of Cpd. 3 and Cpd. […] 8 in STHdh^Q111/Q111. […] Wild type cells are less sensitive to mTOR inhibition and 2.

[3] = tested on: mTOR signaling (S6rP and 4E-BP phosphorylation) in STHdh^Q7/Q7 and STHdh^Q111/Q111 cells; test: mTOR signaling in STHdh cells (western blot); assay type: cell-based, mouse; settings: 4 hours
Method: 8 inhibit mTOR signaling and induce autophagy in neuronal cell models of HD, treatment of STHdh^Q111/Q111 and STHdh^Q7/Q7 cells was employed. […] Cells were seeded in 10 cm dishes. When cells were about 80% confluent, cells were differentiated and treated with compounds at the same time. […] At the end of incubation time cells were washed with cold PBS buffer and lysed with 200 μl of RIPA buffer supplemented with 4% Complete protease inhibitor (Roche, Switzerland) and 10% PhosStop (Roche, Switzerland). After 30 min of incubation on ice, lysates were vortexed, centrifuged (20 min, 4° C., 16000 rpm) and supernatants were collected. […] 30 μg of protein per sample was analyzed by western blot as described above using the following primary antibodies:

[4] = R6/2 pharmacokinetics (plasma, striatum, cerebellum, cortex); assay type: in vivo, mouse; settings: R6/2 mice, single oral dose, one hour; Cpd. 3 75, 50, 25 mg/kg; Cpd. 8 25, 16, 8 mg/kg
Method: In order to test exposure of brain areas, R6/2 mice were treated with a single oral dose of Cpd. 3 (75 mg/kg, 50 mg/kg, 25 mg/kg) or Cpd. 8 (25 mg/kg, 16 mg/kg, 8 mg/kg), 3 animals per group. After one hour plasma was collected and animals were sacrificed. Striatum, cerebellum and cortex was separately snap frozen and analyzed for compound concentration using LC/MS/MS.

[5] = PK in B57BL/6J mice; settings: for half-life: B57BL/6J, in vivo
Method: 8, 50 mg/kg was administered to B57BL/6J mice by gavage. Animals were housed in temperature controlled rooms with free access to food and water. Test items were weighed in a glass vial and dissolved first in DMSO. Tween 80 was added subsequently and finally, the formulation was completed with HPβCD 20%. […] Blood was collected in tubes containing K3-EDTA and stored on ice until centrifugation at 3000×g (10 min. 4° C.). The plasma supernatant was separated and kept at −20° C. until being assayed. Thigh muscle and brain of mice were snap frozen. The brain and muscle samples were homogenized in PBS using the Precellys 24/Dual homogeniser.
Samples were analyzed by LC-MS. Calibration standards were prepared by spiking 20 μl of drug free blank plasma with calibration solution. […] Samples were vigorously shaken and centrifuged for 10 minutes at 6000 g and 20° C. […] An aliquot was transferred to 200 μl sampler vials and subsequently subjected to LC-MS with an injection volume of 1.5 μl.

[6] = 40 mg/kg Cpd. 3 p.o., pretreatment 1 h
[7] = 40 mg/kg Cpd. 3 p.o., pretreatment 3 h
[8] = 100 mg/kg Cpd. 3 p.o., pretreatment 3 h
[9] = 12.5 mg/kg Cpd. 8 p.o., pretreatment 3 h
[10] = 25 mg/kg Cpd. 8 p.o., pretreatment 1 h
[11] = 25 mg/kg Cpd. 8 p.o., pretreatment 3 h
[12] = 25 mg/kg Cpd. 8 p.o., pretreatment 24 h

Nc1cc(C(F)F)c(-c2nc(N3C4CCC3COC4)nc(N3C4CCC3COC4)n2)cn1 [Compound 3, 5-(4-(3-oxa-8-azabicyclo[3.2.1]octan-8-yl)-6-(3-oxa-8-azabicyclo[3.2.1]octan-8-yl)-1,3,5-triazin-2-yl)-4-(difluoromethyl)pyridin-2-amine]
CC50 Pilo-SE (epileptic) [1, 6]: 17.99 ± 1.39 mA
CC50 Sham-SE (nonepileptic) [1, 6]: 15.14 ± 1.06 mA
Threshold difference between nonepileptic and epileptic [1, 6]: 19%
CC50 Pilo-SE (epileptic) [1, 7]: 18.20 ± 1.35 mA
CC50 Sham-SE (nonepileptic) [1, 7]: 17.49 ± 1.20 mA
Threshold difference between nonepileptic and epileptic [1, 7]: 4%
Threshold difference between vehicle and drug threshold, nonepileptic [1, 7]: 6%
CC50 Pilo-SE (epileptic) [1, 8]: 20.85 ± 1.38 mA
CC50 Sham-SE (nonepileptic) [1, 8]: 16.72 ± 1.72 mA
Threshold difference between nonepileptic and epileptic [1, 8]: 25%
Threshold difference between vehicle and drug threshold, epileptic [1, 8]: 9%
Threshold difference between vehicle and drug threshold, nonepileptic [1, 8]: 2%
anticonvulsant effect (overall) ([1]; parameters tested in this study): slight but inconsistent anticonvulsant effect
metabolic activity (PrestoBlue) at 72 hours [2]: slight inhibition; also recorded: decreased metabolic activity
mitochondrial activity [2]: slight increase in mitochondrial activity
mTOR signaling (S6rP phosphorylation and 4E-BP phosphorylation) ([3]; Cpd. 3 200, 400, 1230 nM, Cpd. 8 130, 1230 nM, INK128 100 nM, rapamycin 400 nM): reduced S6rP phosphorylation and 4E-BP phosphorylation
Tissue concentrations reached [4]: well in the efficacious range
Brain AUC ([5]; mouse, po, 50 mg/kg, single): 30600 ng·h/mL
Brain Cmax ([5]; mouse, po, 50 mg/kg, single): 7.7 µg/g

C[C@H]1COCCN1c1nc(-c2cnc(N)cc2C(F)F)nc(N2CCOCC2)n1 [Compound 8, (S)-4-(difluoromethyl)-5-(4-(3-methylmorpholino)-6-morpholino-1,3,5-triazin-2-yl)pyridin-2-amine]
Threshold difference between nonepileptic and epileptic [1, 9]: −1%
Threshold difference between vehicle and drug threshold, epileptic [1, 9]: −1%
Threshold difference between vehicle and drug threshold, nonepileptic [1, 9]: 8%
Threshold difference between nonepileptic and epileptic [1, 10]: −14%
Threshold difference between vehicle and drug threshold, epileptic [1, 10]: −9%
Threshold difference between nonepileptic and epileptic [1, 11]: −22%
Threshold difference between vehicle and drug threshold, epileptic [1, 11]: 6%
Threshold difference between vehicle and drug threshold, nonepileptic [1, 11]: 30%
Threshold difference between nonepileptic and epileptic [1, 12]: 5%
Threshold difference between vehicle and drug threshold, epileptic [1, 12]: −2%
decrease of the CC50 ([1]; Cpd. 8, epileptic mice, pretreatment time reduced to 1 h): 9%
metabolic activity (PrestoBlue) at 72 hours [2]: not significantly
mitochondrial activity [2]: slight increase in mitochondrial activity
low concentration at which an effect on mTOR signaling could already be observed ([3]; STHdh^Q7/Q7 cells): 130 nM
Tissue concentrations reached [4]: sufficient levels were reached at all concentrations
half-life ([5]; mouse, oral, 50 mg/kg, half-life, as stated in the discussion of the Tsc1 GFAP study): 5 h
half-life ([5]; mouse, po, 50 mg/kg, half-life in mice (estimated), mice, single oral 50 mg/kg): 4.7 to 4.8 h
oral bioavailability ([5]; mice, single oral 50 mg/kg): good oral bioavailability
